# Measured values as given in patent US20030190334A1, “Low dose liquid entecavir formulations and use” (priority 2002, published 2003).
# Assay: Reaction of entecavir with sweetener or flavoring agent that contains aldehyde and/or ketone groups
# Assay type: physicochemical
# Text: While entecavir is potent, it is also extremely bitter. To combat the bitterness, a sweetener is generally used. However, entecavir has shown a tendency to react with commonly used sweeteners, such as sucrose, creating stability concerns. Entecavir has a primary amine group in its structure that has the propensity to react with any sweetener or flavoring agent that contains aldehyde and/or ketone groups.
smiles,measurement,setting,value
"C=C1[C@H](CO)[C@@H](O)C[C@@H]1n1cnc2c(=O)[nH]c(N)nc21 [Entecavir, [1S-(1α,3α,4β)]-2-amino-1,9-dihydro-9-[4-hydroxy-3-(hydroxymethyl)-2-methylenecyclopentyl]-6H-purin-6-one]",reaction with sweetener or flavoring agent that contains aldehyde and/or ketone groups,pH 5 to 7,minimized
same,reaction with sweetener or flavoring agent that contains aldehyde and/or ketone groups,weakly acidic pH (pH 3 to 4),more pronounced
